Assay results taken from the supplement of paper PMC7840683.
Counter-ions that a name gives are not always drawn. ± gives the standard deviation of the averaged measurements.

System: HepaRG
Test: LDH release cytotoxicity, % of total lysis control; higher = more cytotoxic
Details: 48 h
In short: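 On collagen I-coated 96-well plates, single-lot HepaRG cells were exposed for 48 h, in duplicate, to eight-point half-log series of test chemicals beginning at 100 µM. The exposure medium was serum-free induction medium with 0.5% DMSO, and total lysis wells got 0.1% Triton X. Resorufin fluorescence from the CytoTox-ONE reaction, read on a Tecan Safire, reported LDH in 50 µL of spent medium. Percent cytotoxicity came from normalization to on-plate vehicle and total lysis controls, averaged over the duplicates.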

Row | Compound | LDH release cytotoxicity (0.03162 µM) | LDH release cytotoxicity (0.1 µM) | LDH release cytotoxicity (0.3162278 µM) | LDH release cytotoxicity (1 µM) | LDH release cytotoxicity (3.16228 µM) | LDH release cytotoxicity (10 µM) | LDH release cytotoxicity (31.6228 µM) | LDH release cytotoxicity (100 µM) | LDH release cytotoxicity (0.031623 µM) | LDH release cytotoxicity (0.316228 µM) | LDH release cytotoxicity (0.0317809 µM) | LDH release cytotoxicity (0.1005 µM) | LDH release cytotoxicity (0.317809 µM) | LDH release cytotoxicity (1.005 µM) | LDH release cytotoxicity (3.17809 µM) | LDH release cytotoxicity (10.05 µM) | LDH release cytotoxicity (31.7809 µM) | LDH release cytotoxicity (100.5 µM)
1 | COC(=O)CSc1cc(N=c2sc(=O)n3n2CCCC3)c(F)cc1Cl [Fluthiacet-methyl] | -1.78 ± 1.1% | -2.67 ± 1% | -1.91 ± 1% | -1.73 ± 0.018% | -1.61 ± 0.37% | -1.57 ± 0.3% | -0.786 ± 0.091% | 0.903 ± 0.25% | – | – | – | – | – | – | – | – | – | –
2 | CC(C)Oc1cccc(NC(=O)c2ccccc2C(F)(F)F)c1 [Flutolanil] | – | -2.54 ± 0.44% | – | -2.18 ± 0.77% | -1.81 ± 1.2% | -1.86 ± 0.057% | -0.343 ± 0.59% | 3.01 ± 0.1% | -1.37 ± 1.1% | -3.14 ± 0.46% | – | – | – | – | – | – | – | –
3 | Nc1nc(=O)c2nc(CNc3ccc(C(=O)NC(CCC(=O)O)C(=O)O)cc3)cnc2[nH]1 (centres undefined) [Folic acid] | -0.0941 ± 0.85% | -1.11 ± 0.044% | -1.22 ± 0.067% | -1.1 ± 0.086% | -0.966 ± 0.064% | -0.672 ± 0.085% | -0.33 ± 0.12% | 1.64 ± 0.3% | – | – | – | – | – | – | – | – | – | –
4 | O=C1c2ccccc2C(=O)N1SC(Cl)(Cl)Cl [Folpet] | – | -2.6 ± 0.32% | – | -1.65 ± 1.3% | -1.73 ± 0.14% | -1.49 ± 0.98% | -0.653 ± 0.48% | -0.43 ± 1.1% | 0.571 ± 0.94% | -1.27 ± 0.63% | – | – | – | – | – | – | – | –
5 | CS(=O)(=O)NC(=O)c1cc(Oc2ccc(C(F)(F)F)cc2Cl)ccc1[N+](=O)[O-] [Fomesafen] | -1.12 ± 1.1% | -1.48 ± 0.59% | 0.3 ± 0.32% | -0.63 ± 0.72% | -0.773 ± 0.02% | 0.708 ± 0.54% | 0.985 ± 0.17% | 3.41 ± 0.9% | – | – | – | – | – | – | – | – | – | –
6 | O=C(Nc1ccccc1)Nc1ccnc(Cl)c1 [Forchlorfenuron] | -0.561 ± 0.058% | -0.953 ± 0.64% | -0.719 ± 0.22% | -0.995 ± 0.79% | -0.25 ± 0.84% | -0.369 ± 0.16% | 6.54 ± 0.27% | 61.5 ± 5.7% | – | – | – | – | – | – | – | – | – | –
7 | NC=O [Formamide] | -0.907 ± 0.53% | -1.37 ± 0.46% | -0.701 ± 1.2% | -1.62 ± 1.2% | -1.72 ± 0.14% | -1.47 ± 1.5% | -0.537 ± 0.33% | 0.4 ± 1.3% | – | – | – | – | – | – | – | – | – | –
8 | CNC(=O)Oc1cccc(N=CN(C)C)c1 [Formetanate hydrochloride] | – | – | – | – | – | – | – | – | – | – | -8.9 ± 1.2% | -7.63 ± 0.9% | -7.59 ± 0.12% | -7.51 ± 1% | -6.9 ± 0.096% | -5.88 ± 0.74% | -6.15 ± 0.89% | -5.62 ± 1.4%
9 | CCOP(=O)(SC(C)CC)N1CCSC1=O (centres undefined) [Fosthiazate] | -0.419 ± 0.44% | -0.335 ± 0.79% | -0.582 ± 0.46% | -0.0276 ± 1% | -0.262 ± 0.11% | -0.389 ± 0.35% | -0.432 ± 0.8% | 0.843 ± 0.36% | – | – | – | – | – | – | – | – | – | –
10 | CC12CCC3c4ccc(O)cc4CC(CCCCCCCCCS(=O)CCCC(F)(F)C(F)(F)F)C3C1CCC2O (centres undefined) [Fulvestrant] | -1.87 ± 0.22% | -1.62 ± 0.93% | -0.633 ± 0.4% | -1.01 ± 0.37% | -1.1 ± 0.47% | -0.0401 ± 1.7% | -3.17 ± 0.35% | 3.92 ± 6.4% | – | – | – | – | – | – | – | – | – | –
11 | O=Cc1ccco1 [Furfural] | -1.57 ± 0.78% | -2.07 ± 1.7% | -2.64 ± 0.63% | -3.82 ± 2.1% | -4.51 ± 0.77% | -0.135 ± 1.1% | -0.567 ± 0.12% | 3.05 ± 1.1% | – | – | – | – | – | – | – | – | – | –
12 | O=c1c(-c2ccc(O)cc2)coc2cc(O)cc(O)c12 [Genistein] | -1.15 ± 0.87% | 0.689 ± 1.7% | -2.06 ± 0.49% | -1.48 ± 0.77% | -1.52 ± 0.039% | -1.28 ± 0.36% | -1.5 ± 0.3% | 1.33 ± 0.27% | – | – | – | – | – | – | – | – | – | –
13 | CN(C)c1ccc(C(=C2C=CC(=[N+](C)C)C=C2)c2ccc(N(C)C)cc2)cc1 [Gentian Violet] | -1.62 ± 0.081% | -2.46 ± 0.081% | -1.86 ± 0.074% | -1.96 ± 0.38% | 6.76 ± 0.71% | 29.8 ± 0.12% | 51.8 ± 0.8% | 54.6 ± 3.8% | – | – | – | – | – | – | – | – | – | –
14 | CC(C)=CCC/C(C)=C/CO [Geraniol] | -2.2 ± 0.9% | -2.89 ± 0.23% | -2.68 ± 0.32% | -2.72 ± 0.9% | -2.26 ± 0.81% | -1.87 ± 0.88% | -1.12 ± 0.87% | -0.773 ± 0.42% | – | – | – | – | – | – | – | – | – | –
15 | CC(=O)OCC=C(C)CCC=C(C)C [Geranyl acetate] | – | -3.48 ± 2.1% | – | -4.04 ± 0.45% | -4.04 ± 0.095% | -3.42 ± 0.49% | -1.98 ± 0.24% | -0.423 ± 0.54% | -1.3 ± 1.1% | -4.47 ± 1.1% | – | – | – | – | – | – | – | –
16 | O=CCCCC=O [Glutaraldehyde] | -0.884 ± 0.62% | -1.62 ± 0.91% | -1.72 ± 0.78% | -1.74 ± 0.39% | -1.11 ± 0.16% | -0.663 ± 0.23% | -1.18 ± 0.084% | 0.174 ± 0.34% | – | – | – | – | – | – | – | – | – | –
17 | OCC(O)CO [Glycerol] | -1.51 ± 0.67% | -1.11 ± 0.27% | -1.56 ± 0.12% | -1.79 ± 0.27% | -1.43 ± 0.14% | -1.14 ± 0.37% | -0.926 ± 0.83% | -0.545 ± 0.22% | – | – | – | – | – | – | – | – | – | –
18 | OCC1CO1 (centres undefined) [Glycidol] | -0.883 ± 0.53% | -1.28 ± 0.094% | -0.409 ± 0.45% | -1.25 ± 0.47% | -0.452 ± 0.0064% | -0.678 ± 0.18% | -0.342 ± 0.43% | 1.57 ± 0.042% | – | – | – | – | – | – | – | – | – | –
